# According to patent US20220265618A1, “METHODS OF TREATING PROSTATE CANCER” (Celgene Quanticel Research, Inc., priority 2021, published 2022):
# Assays:
# PC3 cells = test: Proliferation assay (Cell Titer-Glo), PC3 cells; type: cell-based, human; conditions: 3 days (FIG. 11)
# Protocol: (§1) Proliferation was measured both at Day 0 and at Day 3, and percent of growth was determined using Luciferase assay.
# (§2) Cell culture: VCaP, LNCaP, 22Rv1, DU145 and PC3 cancer cell lines were obtained from ATCC. VCaP cells were cultured in DMEM media supplemented with 8% FBS, LNCaP cells were cultured in RPMI1640 media supplemented with 10% FBS, and PC3 cells were cultured in F12 K media supplemented with 10% FBS. LNCaP_AR CRISPRi gCTR, LNCaP_AR CRISPRi gTP53/RB1, and LNCaP_AR shTP53/RB1 cells were obtained from Charles L. Sawyers lab and were cultured in RPMI1640 supplemented with 10% FBS+2 mM L-Glutamine+1 mM Sodium Pyruvate+10 mM Hepes. DKO and TKO cells were obtained from David W. Goodrich lab and were cultured in DMEM media supplemented with 2.5% charcoal-stripped FBS+5 μg/mL of insulin/transferring/selenium (ITS)+10 μg/mL of bovine pituitary extract (BPE)+10 μg/mL of epidermal growth factor+1 μg/mL of cholera toxin. DKO cells have been derived from intact mice so were cultured also in presence of 1nM R1881.
# (§3) Proliferation Assay: Cells were plated in a 384-well format and were allowed to adhere 24h before treatment. Drugs were titrated 1:3 from 10 μM to 0.1 nM with 9 doses in triplicate. Cell proliferation was measured on the day of treatment (Day 0) and on Day 3 or Day 6 or Day 14 using Cell Titer-Glo reagent (Promega) according to the manufacturer's instructions. […]
# DU145 cells = test: Proliferation assay (Cell Titer-Glo), DU145 cells; type: cell-based, human; conditions: 3 days (FIG. 10)
# Protocol: as §1, §2, §3
# 22Rv1 cells = test: Proliferation assay (Cell Titer-Glo), 22Rv1 cells; type: cell-based; conditions: Homo sapiens, 22Rv1, 72 h; 3 days (FIG. 6); read-out: IC50, proliferation of 22RV.1 cells
# Protocol: as §1, §2, §3
# [1] = test system: MYC gene expression in 22Rv1 cells; test: qPCR gene expression in 22Rv1 cells: MYC; type: cell-based, human; conditions: 22RV.1 cells, 48 hours
# Protocol: (§4) KLK3, TMPRSS2,MYC and HEXIM1 genes expression was determined by qPCR.
# [2] = test system: TMPRSS2 gene expression in 22Rv1 cells; test: qPCR gene expression in 22Rv1 cells: TMPRSS2; type: cell-based, human; conditions: 22RV.1 cells, 48 hours
# Protocol: as §4
# [3] = test system: TMPRSS2 gene expression in VCaP cells; test: qPCR gene expression in VCaP cells: TMPRSS2; type: cell-based, human; conditions: 400 nM, 48 h
# Protocol: as §4
# [4] = test system: LNCaP cells overexpressing AR (LNCaP_AR); test: Proliferation assay (Cell Titer-Glo), LNCaP_AR cells; type: cell-based, human
# Protocol: as §1
# (§5) Proliferation was measured both at Day 0 and at Day 6, and percent of growth was determined using Luciferase assay.
# (§6) Proliferation was measured both at Day 0 and at Day 14, and percent of growth was determined using Luciferase assay.
# as §2
# (§7) Proliferation Assay: Cells were plated in a 384-well format and were allowed to adhere 24h before treatment. Drugs were titrated 1:3 from 10 μM to […] with 9 doses in triplicate. Cell proliferation was measured on the day of treatment (Day 0) and on Day 3 or Day 6 or Day 14 using Cell Titer-Glo reagent (Promega) according to the manufacturer's instructions. Cell growth normalized to the DMSO vehicle control and to Day 0 was fitted by nonlinear regression using GraphPad Prism 7.03 (GraphPad Software, Inc.).
# [5] = test system: HEXIM1 gene expression in VCaP cells; test: qPCR gene expression in VCaP cells: HEXIM1; type: cell-based, human; conditions: 48 h
# Protocol: as §4
# [6] = test system: TKO cells (deleted for Pten, Rb1, and Trp53); test: Proliferation assay (Cell Titer-Glo), TKO cells; type: cell-based, mouse
# Protocol: as §5, §2, §3
# [7] = test system: HEXIM1 gene expression in 22Rv1 cells; test: qPCR gene expression in 22Rv1 cells: HEXIM1; type: cell-based, human; conditions: 22RV.1 cells, 400 nM, 48 hours
# Protocol: as §4
# [8] = test system: KLK3 gene expression in 22Rv1 cells; test: qPCR gene expression in 22Rv1 cells: KLK3; type: cell-based, human; conditions: 22RV.1 cells, 48 hours
# Protocol: as §4
# LNCaP cells = test: Proliferation assay (Cell Titer-Glo), LNCaP cells; type: cell-based, human
# Protocol: as §1, §5, §2, §7
# [9] = test system: MYC gene expression in VCaP cells; test: qPCR gene expression in VCaP cells: MYC; type: cell-based, human; conditions: 48 h
# Protocol: as §4
# VCaP cells = test: Proliferation assay (Cell Titer-Glo), VCaP cells; type: cell-based, human
# Protocol: as §1, §5
# as §2, with “DKO cells have been derived from intact mice so were cultured also in presence of 1nM R1881.” left out
# Proliferation Assay: Cells were plated in a 384-well format and were allowed to adhere 24h before treatment. […] Cell proliferation was measured on the day of treatment (Day 0) and on Day 3 or Day 6 or Day 14 using Cell Titer-Glo reagent (Promega) according to the manufacturer's instructions. […]
# [10] = test system: DKO cells (deleted for Pten and Rb1); test: Proliferation assay (Cell Titer-Glo), DKO cells; type: cell-based, mouse
# Protocol: as §6, §2, §3
# [11] = test system: LNCaP_AR shTP53/RB1 cells; test: Proliferation assay (Cell Titer-Glo), LNCaP_AR shTP53/RB1 cells; type: cell-based, human
# Protocol: as §6, §2, §7
# [12] = test system: KLK3 gene expression in VCaP cells; test: qPCR gene expression in VCaP cells: KLK3; type: cell-based, human; conditions: 400 nM, 48 h
# Protocol: as §4
# [13] = test system: LNCaP_AR CRISPRi guide TP53/RB1 cells; test: Proliferation assay (Cell Titer-Glo), LNCaP_AR CRISPRi TP53/RB1 cells; type: cell-based, human
# Protocol: as §6, §2, §7
# [14] = test system: Neuroendocrine prostate cancer models; test: Proliferation assay, all Neuroendocrine prostate cancer models tested (summary); type: cell-based; conditions: summary over all NEPC models
# Protocol: as §2, §3
smiles,measurement,setting,value
"Cn1cc(-c2cc(S(C)(=O)=O)ccc2OCC2CC2)c2ccccc2c1=O [Compound A, 4-[2-(cyclopropylmethoxy)-5-methylsulfonylphenyl]-2-methylisoquinolin-1-one]",reduction of PC3 proliferation,PC3 cells,80%
same,IC50,"PC3 cells; Homo sapiens, PC-3, 72 h",550 nM
same,reduction of DU145 proliferation,DU145 cells,76%
same,IC50,"DU145 cells; Homo sapiens, DU-145, 72 h",680 nM
same,IC50,22Rv1 cells,200 nM
same,MYC downregulation,[1]; 40 nM,64%
same,MYC downregulation,[1]; 400 nM,93.9%
same,TMPRSS2 reduction,[2]; 40 nM,93.2%
same,TMPRSS2 reduction,[2]; 400 nM,95.3%
same,TMPRSS2 downregulation as compared to DMSO,[3],26.3%
same,growth arrest of LNCaP_AR cells,[4]; 3 days (FIG. 4A),complete growth arrest
same,cytotoxicity in LNCaP_AR cells,"[4]; highest dose, longer treatment (6 days, FIG. 4B)",cytotoxicity
same,concentration causing cell death in LNCaP_AR cells on re-treatment,"[4]; treated Day 0 and Day 6, total 14 days (FIG. 5)",> 1 µM
same,HEXIM1 upregulation as compared to DMSO,[5]; 40 nM,121.1%
same,HEXIM1 upregulation as compared to DMSO,[5]; 400 nM,754%
same,growth arrest of TKO cells,"[6]; at 3 uM, treated Day 0 and Day 3, total 6 days (FIG. 9A)",100%
same,cytotoxic activity in TKO cells,[6]; at the highest concentrations (FIG. 9A),cytotoxic activity
same,HEXIM1 induction,[7],31%
same,KLK3 downregulation,[8]; 40 nM,98.8%
same,KLK3 downregulation,[8]; 400 nM,99.51%
same,IC50,"LNCaP cells; Homo sapiens, LNCaP, 144 h, prolonged treatment (6 days) (FIG. 3B), read-out: half maximal inhibitory concentration (IC50), LNCaP cells",490 nM
same,growth arrest of LNCaP cells,LNCaP cells; after 3 days of treatment (FIG. 3A),100%
same,cell death in LNCaP cells,LNCaP cells; prolonged treatment (6 days),induced cell death
same,reduction in MYC expression,[9]; 40 nM,18.9%
same,MYC downregulation,[9]; 400 nM,81.1%
same,growth arrest of VCaP cell proliferation,"VCaP cells; at 0.3 μM Compound A, 3 and 6 days (FIGS. 1A-1B)",100%
same,cytotoxic effects in VCaP cells,VCaP cells; at the highest concentration (FIGS. 1A-1B),cytotoxic effects
same,growth arrest of DKO cells,"[10]; at 1 uM, treated Day 0 and Day 6, total 14 days (FIG. 9B)",100%
same,cytotoxic activity in DKO cells,[10]; at the highest concentrations (FIG. 9B),cytotoxic activity
same,IC50,"[11]; Homo sapiens, LNCaP/AR, treated Day 0 and Day 6, total 14 days (FIG. 8B)",60 nM
same,cell death in LNCaP_AR cells depleted for TP53 and RB1 (shRNA),[11]; summary statement,induced cell death
same,growth arrest of LNCaP_AR shTP53/RB1 cells,"[11]; treated Day 0 and Day 6, total 14 days (FIG. 8B)",100%
same,KLK3 downregulation as compared to DMSO,[12],80.2%
same,IC50,"[13]; Homo sapiens, LNCaP/AR, treated Day 0 and Day 6, total 14 days (FIG. 8A)",220 nM
same,cell death in LNCaP_AR cells depleted for TP53 and RB1 (CRISPRi),[13]; summary statement,induced cell death
same,growth arrest of LNCaP_AR CRISPRi guide TP53/RB1 cells,"[13]; treated Day 0 and Day 6, total 14 days (FIG. 8A)",100%
same,reduction of cell proliferation in all Neuroendocrine prostate cancer models tested,[14],> 76%
